Experiments:
[1] = DPPH free-radical scavenging assay; type: biochemical; details: result in words; figure values in mg AAE/100 g not given
Protocol: (§1) The free-radical scavenging activity of 1 and 2 in relation to the 2,2-diphenyl-1-picrylhydrazyl (DPPH) radical was measured using the colorimetric method described by Brand-Williams (1995), and the results are expressed in mg of ascorbic acid equivalent per 100 g of material (AAE/100 g). To evaluate the capacity of hydrogen atom transfer (HAT) of the isolated compounds, male Wistar rat brain homogenate was used as substrate for the production of thiobarbituric acid reactive substances (TBARS) produced by Fe^2+-induced oxidation undertaken at 37 °C, following the experimental conditions described elsewhere. The inhibition of lipid peroxidation was expressed as % of inhibition. The animal protocol was approved by the Ethics Committee (UEPG, protocol 47/2017).

[2] = test system: Wistar rat brain homogenate; test: Inhibition of lipid peroxidation (TBARS, Fe2+-induced oxidation) in rat brain homogenate; type: biochemical; details: at 40 mg/L
Protocol: as §1

[3] = MTT cytotoxicity assay, A549; type: cell-based, human; details: human, A549 lung adenocarcinoma epithelial cells, A549, 48 h
Protocol: (§2) The in vitro cytotoxic effect of 1 and 2 compounds were analyzed in relation to A549 (lung adenocarcinoma epithelial cells—BCRJ code: 0033), HepG2 (human hepatoma carcinoma cells—BCRJ code: 0291), and IMR90 (human lung fibroblast—BCRJ code: 0118) cell lines using MTT (3-(4,5-dimethylthiazol-2-yl)-2,5-diphenyl tetrazolium bromide) (Sigma-Aldrich, COD—M5655) assay. All cell lines were maintained in Dulbecco’s Modified Eagle’s Medium/Nutrient Mixture F-12 Ham (Sigma-Aldrich, COD—D8900), with added 10% fetal bovine serum (FBS, Gibco, COD—16000044) and 100 IU penicillin/100 µg streptomycin (Sigma-Aldrich, COD—P4333). The cell lines were grown in a humidified incubator at 37 °C containing 5% CO2. Briefly, the cells were seeded into 96-well plates at a density of 1 × 10^4 cells/well (HepG2 and A549), 5 × 10^3 cells/well (IMR90), 100 μL/well, and after 24 h, the cells were treated with 100 μL of serial concentrations (10–500 μM) of compounds 1 and 2 for 48 h. The stock solution of extracts contained 5% of dimethyl sulfoxide (DMSO) at a final concentration of 0.2% in cell medium for all in vitro assays. The IC50, GI50, and LC50 parameters were performed in accordance with the method described by do Carmo (2018), in which IC50 is the concentration of the agent that inhibits growth by 50%, calculated as (T/C) × 100 = 50, where T = number of cells at time t of treatment; C = control cells at time t of treatment; GI50 is the concentration of the agent that inhibits growth by 50% relative to untreated cells, calculated as ((T − T0)/(C − T0)) × 100 = 50, where T and C are the number of treated and control cells, respectively, at time t of treatment, and T > T0 where T0 is the number of cells at time zero; LC50 is the concentration of the agent that results in a net loss of 50% cells relative to the number at the start of treatment, calculated as ((T − T0)/T0) × 100 = −50, where T < T0. The experiments were conducted in quadruplicate on three different days to assure the reproducibility of the generated data.

[4] = test system: A549 (lung adenocarcinoma epithelial cells); test: MTT cytotoxicity assay, A549; type: cell-based, human; details: Homo sapiens, A549, 48 h; for IC50: 10–500 μM, read-out: IC50 (cell viability); for GI50: read-out: GI50 (antiproliferative effect)
Protocol: as §2

[5] = MTT cytotoxicity assay, HepG2; type: cell-based, human; details: human, HepG2 hepatoma carcinoma cells, HepG2, 48 h
Protocol: as §2

[6] = test system: HepG2 (human hepatoma carcinoma cells); test: MTT cytotoxicity assay, HepG2; type: cell-based; details: Homo sapiens, HepG2, 48 h; for IC50: 10–500 μM, read-out: IC50 (cell viability); for GI50: read-out: GI50 (antiproliferative effect)
Protocol: as §2

[7] = MTT cytotoxicity assay, IMR90; type: cell-based, human; details: human, IMR90 lung fibroblasts, IMR90, 48 h, read-out: LC50 (cell death)
Protocol: as §2

[8] = test system: IMR90 (human lung fibroblast); test: MTT cytotoxicity assay, IMR90; type: cell-based; details: Homo sapiens, IMR-90, IMR90, 48 h; for IC50: 10–500 μM, read-out: IC50 (cell viability); for GI50: read-out: GI50 (antiproliferative effect)
Protocol: as §2

[9] = test system: A549 cancer cells; test: Intracellular ROS measurement (DCFH-DA fluorescence), A549; type: cell-based, human; details: A549, 10, 50 and 100 μM (legend; method says μg/mL), 1 h
Protocol: (§3) In order to assess the in vitro antioxidant/oxidant potential of 1 and 2, intracellular ROS generation was measured using a fluorescence technique as described by Carmo (2019). Briefly, A549 cancer cells (6 × 10^4/well) and IMR90 normal cells (2 × 10^4/well) were exposed to concentrations of 10, 50, and 100 μg/mL of 1 and 2 compounds, culture medium (negative control), and 15 μmol/L H2O2 (positive control), for 1 h in DCFH-DA solution ([…]), at 37 °C and 5% CO2. Subsequently, cells were washed with PBS and a H2O2 solution (15 μmol/L) added for recording of fluorescence. Intracellular fluorescence intensity of cells was measured at an excitation wavelength of 485 nm and at an emission wavelength of 538 nm. The assays were performed in quadruplicate on three different days.

[10] = test system: IMR90 normal cells; test: Intracellular ROS measurement (DCFH-DA fluorescence), IMR90; type: cell-based, human; details: IMR90, 10, 50 and 100 μM (legend; method says μg/mL), 1 h
Protocol: as §3

SMILES	free-radical scavenging activity (DPPH assay) [1]	inhibition of lipoperoxidation in rat brain homogenate [2]	LC50 (concentration causing 50% cell death) at 48 h [3]	IC50 [4]	GI50 [4]	LC50 (concentration causing 50% cell death) at 48 h [5]	IC50 [6]	GI50 [6]	CC50 at 48 h [7]	IC50 [8]	GI50 [8]	intracellular ROS generation [9]	intracellular ROS generation [10]
CC1=CC=C[C@]2(C)CC(=O)C(=C(C)C)C[C@H]12 (relative stereo) [Compound 1, selina-1,3,7(11)-trien-8-one]	insignificant free-radical scavenging activity	did not show inhibitory activity	> 500 µM	> 500 µM	591 µM	> 500 µM	> 500 µM	289 µM	> 500 µM	> 500 µM	185 µM	inducing reactive oxygen species (ROS) generation	inducing reactive oxygen species (ROS) generation
CC1=COC=C[C@]2(C)CC(=O)C(=C(C)C)C[C@H]12 (relative stereo) [Compound 2, oxidoselina-1,3,7(11)-trien-8-one]	insignificant free-radical scavenging activity	did not show inhibitory activity		> 500 µM	359 µM		525 µM	97.5 µM	> 500 µM	> 500 µM	14.9 µM	inducing reactive oxygen species (ROS) generation	inducing reactive oxygen species (ROS) generation
